The target of assay [1] is T1, APOL1 G2 (Homo sapiens, UniProt O14791, DEL388-389).
T1 construct: expressed in transfected cells; host or cells: HEK293 T-REx clonal lines: HEK T-REx/GCaMP6f/APOL1 G2 K6.3 in A1, HEK293/T-REx APOL1 G2/clone #2 in A2
T1 sequence (O14791 with tags, fused parts or gaps DEL388-389): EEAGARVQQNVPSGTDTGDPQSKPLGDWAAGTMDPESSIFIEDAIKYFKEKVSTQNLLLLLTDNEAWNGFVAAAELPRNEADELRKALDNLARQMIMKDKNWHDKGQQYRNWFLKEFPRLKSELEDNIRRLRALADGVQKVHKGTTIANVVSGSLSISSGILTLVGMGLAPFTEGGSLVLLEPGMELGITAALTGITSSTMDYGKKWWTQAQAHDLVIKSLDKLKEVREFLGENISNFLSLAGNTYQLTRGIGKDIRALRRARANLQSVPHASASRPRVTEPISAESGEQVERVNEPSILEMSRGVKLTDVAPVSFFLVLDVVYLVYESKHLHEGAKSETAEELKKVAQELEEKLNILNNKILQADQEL
Description: APOL1 calcium transport inhibition assay (GCaMP6f calcium influx, FLIPR) in HEK T-REx/GCaMP6f/APOL1 G2 K6.3 cells. The class given is cell-based. The settings on record: inhibition of APOL1-mediated calcium influx; geometric mean of at least 2 assay runs, † = single assay run (technical duplicate). The method, boiled down:
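HEK293 cells stably expressing GCaMP6f, APOL1 G2 induced 6 h with doxycycline (20 ng/mL added), then washed into Ca2+-free Tyrode's buffer pH 7.4. Compounds (8-point dose response) preincubated 10 min at room temperature, then Ca2+ injected to 5 mM final and influx read on FLIPR. AC50 reported as geometric mean of runs.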

In assay [2] the target is T1, APOL1 G2. Briefly: Rescue of HEK293 cell death caused by overexpression of APOL1 (CellTiter-Glo luminescence), HEK293/T-REx APOL1 G2/clone #2. It counts as cell-based. The conditions noted are these: reversal of cell death caused by overexpression of APOL1; geometric mean of at least 2 assay runs, † = single assay run (technical duplicate). The method, boiled down:
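HEK293/T-REx APOL1 G2 clone #2 cells, 5,000/well, induced with 6 ng/mL doxycycline and exposed to compound (8-point, 3-fold dilutions, 0.5% DMSO) for 17 h at 37 °C. Viability by CellTiter-Glo luminescence; EC50 for reversal of APOL1-induced death from a four-parameter logistic fit, geometric mean of ≥2 runs.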
On the technique in general: In ATP-based viability assays light output follows the ATP content of the culture.

SMILES strings stand for the structures.

Broadly, the AC50 is the concentration at which the activity in the assay is half-maximal. As usually defined, the EC50 is the concentration giving half of the maximal effect. For the molecule `CS(=O)(=O)c1ccc(OC[C@H](O)CNC(Cc2cccc(Cl)c2)C2CC2)cc1` (stereo partly drawn) [Compound 102, (2R)-1-((2-(3-chlorophenyl)-1-cyclopropylethyl)a-mino)-3-(4-(methylsulfonyl)phe-noxy)propan-2-ol], at APOL1 G2 [1], the AC50 worked out at 2190 nM. Besides, the EC50 at APOL1 G2 [2] is over 21800 nM.
Turning to `CN(c1ccc(NCC(O)CNCCc2cccc(Cl)c2)cc1)S(C)(=O)=O` (stereo not shown) [Compound 105, N-(4-((3-((3-chlorophenethyl)a-mino)-2-hydroxypropyl)ami-no)phenyl)-N-methylmethanesulfon-amide], at APOL1 G2 [1], the AC50 turned out to be 946 nM. For the same molecule, the EC50 on APOL1 G2 [2] was over 12400 nM.
Consider `C[C@@H]1CN(CCc2cccc(Cl)c2)C[C@H]1COc1ccc(S(=O)(=O)CCS(C)(=O)=O)cc1` [Compound 107, (3S,4S)-1-[2-(3-chlorophenyl)ethy 1]-3-{[4-(2-methanesulfonyl-ethanesulfonyl)phenoxy]methyl}-4-methyl-pyrrolidine], for which the AC50 at APOL1 G2 [1] amounted to 91.9 nM. Also, the EC50 on APOL1 G2 [2] came out at 80.9 nM.
`C[C@@H]1CN(CCc2cc(Cl)cc(C#N)c2)C[C@H]1COc1ccc(S(=O)(=O)CCS(C)(=O)=O)cc1` [Compound 108, 3-chloro-5-{2-[(3S,4S)-3-{[4-(2-methanesulfonyl-ethanesulfonyl)phenoxy]methyl}-4-methyl-pyrrolidin-1-yl]ethyl}benzonitrile]: on APOL1 G2 [1], the AC50 came to 144 nM. Moreover, on APOL1 G2 [2], the EC50 came out at 50.4 nM.
Consider `C[C@@H]1CN(CC(O)c2cc(Cl)cc(C#N)c2)C[C@H]1COc1ccc(S(C)(=O)=O)cc1` (stereo partly shown) [Compound 120], for which the AC50 on APOL1 G2 [1] came out at 461 nM. In addition, at APOL1 G2 [2], the EC50 is 195 nM.
The corresponding values for `C[C@@H]1CN(CC(O)c2cccc(Cl)c2)C[C@H]1COc1ccc(S(C)(=O)=O)cc1` (stereo partly drawn) [Compound 123, 1-(3-chlorophenyl)-2-((3S,4S)-3-methyl-4-((4-(methylsulfonyl)phenoxy)methyl)pyrrolidin-1-yl)ethan-1-ol] are 376 nM and 300 nM.
For `C[C@@H]1CN(CC(O)c2cccc(C#N)c2)C[C@H]1COc1ccc(S(C)(=O)=O)cc1` (stereo partly shown) [Compound 126], the AC50 at APOL1 G2 [1] was found to be 704 nM. Besides, at APOL1 G2 [2], the EC50 worked out at 560 nM.
The corresponding values for `C[C@@H]1CN(CC(O)c2cc(C#N)cc(C#N)c2)C[C@H]1COc1ccc(S(C)(=O)=O)cc1` (stereo partly drawn) [Compound 129, 5-{1-hydroxy-2-[(3S,4S)-3-[(4-methanesulfonylphenoxy)methyl]-4-methylpyrrolidin-1-yl]ethyl}benzene-1,3-dicarbonitrile] are 1040 nM and 723 nM.
Consider `C[C@@H]1C[C@H](COc2ccc(S(C)(=O)=O)cc2)CN1CCc1cc(C#N)cc(C#N)c1` [Compound 132], for which the AC50 on APOL1 G2 [1] worked out at 510 nM. The EC50 on APOL1 G2 [2] was 43.7 nM.
The corresponding values for `C[C@@H]1CN(CCc2cccc(Cl)c2)C[C@H]1COc1ccc(S(C)(=O)=O)cc1` [Compound 133, (35,4S)-1-[2-(3-chlorophenyl)ethyl]-3-[(4-methanesulfonylphenoxy)methyl]-4-methylpyrrolidine] are 38.3 nM and 135 nM.
For `C[C@H]1CC[C@H](COc2ccc(S(C)(=O)=O)cc2)CN1CCc1cccc(Cl)c1` [Compound 134, (25,5S)-1-[2-(3-chlorophenyl)ethyl]-5-[(4-methanesulfonylphenoxy)methyl]-2-methylpiperidine], the AC50 at APOL1 G2 [1] stood at 277 nM. Moreover, the EC50 at APOL1 G2 [2] turned out to be 908 nM.
Regarding `Cc1c(C#N)cc(Cl)cc1CCN1C[C@@H](COc2ccc(S(C)(=O)=O)cc2)C[C@H]1C` [Compound 141, 5-chloro-3-{2-[(2R,4S)-4-[(4-methanesulfon-ylphenoxy)meth-yl]-2-methyl-pyrrolidin-1-yl]-ethyl}-2-methyl-benzonitrile], the AC50 on APOL1 G2 [1] worked out at 737 nM. For the same molecule, the EC50 at APOL1 G2 [2] was 78.9 nM.
Turning to `Cc1c(C#N)cc(Cl)cc1CCN1C[C@@H](COc2ccc(S(C)(=O)=O)cc2)[C@H](C)C1` [Compound 144, 5-chloro-3-{2-[(3S,4S)-3-[(4-methanesulfon-ylphenoxy)meth-yl]-4-methyl-pyrrolidin-1-yl]-ethyl}-2-methyl-benzonitrile], the AC50 on APOL1 G2 [1] was 423 nM. Moreover, at APOL1 G2 [2], the EC50 amounted to 256 nM.
The corresponding values for `C[C@@H]1CN(CCc2cc(C#N)cc(C#N)c2)C[C@H]1COc1ccc(S(C)(=O)=O)cc1` [Compound 145, 5-{2-[(3S,4S)-3-[(4-methane-sulfonylphen-oxy)methyl]-4-methylpyrroli-din-1-yl]ethyl}-benzene-1,3-dicarbonitrile] are 356 nM and 243 nM.
In the case of `CC(CN1C[C@@H](COc2ccc(S(C)(=O)=O)cc2)[C@H](C)C1)c1cc(Cl)cc(C#N)c1` (stereo partly drawn) [Compound 146, 3-chloro-5-[1-[(3S,4S)-3-[(4-methanesulfon-ylphenoxy)meth-yl]-4-methyl-pyrrolidin-1-yl]-propan-2-yl]-benzonitrile], at APOL1 G2 [1], the AC50 worked out at 937 nM. For the same molecule, the EC50 on APOL1 G2 [2] amounted to 273 nM.
`C[C@@H]1CN(CCc2cccc(C#N)c2)C[C@H]1COc1ccc(S(C)(=O)=O)cc1` [Compound 149, 3-{2-[(3S,4S)-3-[(4-methane-sulfonylphen-oxy)methyl]-4-methylpyrroli-din-1-yl]ethyl}-benzonitrile]: the AC50 at APOL1 G2 [1] came out at 99.8 nM. Further, the EC50 at APOL1 G2 [2] is 272 nM.
With `C[C@@H]1C[C@H](COc2ccc(S(C)(=O)=O)cc2)CN1CCc1cccc(Cl)c1` [Compound 153, (2R,4S)-1-[2-(3-chlorophenyl)-ethyl]-4-[(4-methanesulfon-ylphenoxy)meth-yl]-2-methyl-pyrrolidine], the AC50 at APOL1 G2 [1] was determined as 374 nM. The EC50 on APOL1 G2 [2] turned out to be 27.8 nM.
For the molecule `C[C@@H]1C[C@H](COc2ccc(S(=O)(=O)C3CNC3)cc2)CN1CCc1cccc(C#N)c1` [Compound 156, 3-{2-[(2R,4S)-4-{[4-(azetidine-3-sulfonyl)phenoxy]methyl}-2-methylpyrrolidin-1-yl]ethyl}benzonitrile], the AC50 at APOL1 G2 [1] was 311 nM. Besides, the EC50 at APOL1 G2 [2] is 178 nM.
In the case of `CN=S(C)(=O)c1ccc(OC[C@H]2C[C@@H](C)N(CCc3cccc(C#N)c3)C2)cc1` (stereo partly drawn) [Compound 157, 3-[2-[(2R,4S)-2-methyl-4-({4-[methyl(methyli-mino)oxo-λ^6-sulfanyl]phenoxy}methyl)pyrrolidin-1-yl]ethyl}benzonitrile], at APOL1 G2 [1], the AC50 came to 441 nM. In addition, the EC50 on APOL1 G2 [2] was determined as 38.9 nM.
Regarding `C[C@@H]1CC[C@H](COc2ccc(S(C)(=O)=O)cc2)CN1CCc1cccc(Cl)c1` [Compound 160, (2R,5S)-1-[2-(3-chlorophenyl)ethyl]-5-[(4-methanesulfonylphenoxy)methyl]-2-methylpiperidine], at APOL1 G2 [1], the AC50 was found to be 382 nM. Besides, on APOL1 G2 [2], the EC50 was 584 nM.
The corresponding values for `C[C@@H]1C[C@H](COc2ccc(S(=O)(=O)C3CNC3)cc2)CN1CCc1cc(Cl)cc(C#N)c1` [Compound 161, 3-{2-[(2R,4S)-4-{[4-(azetidine-3-sulfonyl)phenoxy]methyl}-2-methylpyrrolidin-1-yl]ethyl}-5-chlorobenzonitrile] are 878 nM and 191 nM.
With `C[C@@H]1C[C@H](COc2ccc(S(=O)(=O)CCCS(C)(=O)=O)cc2)CN1CCc1cccc(C#N)c1` [Compound 162, 3-{2-[(2R,4S)-4-{[4-(3-methanesulfonylpro-panesulfonyl)phe-noxy]methyl}-2-methylpyrrolidin-1-yl]ethyl}benzonitrile], on APOL1 G2 [1], the AC50 came to 233 nM. Further, on APOL1 G2 [2], the EC50 amounted to 27.9 nM.
Take `C[C@@H]1CN(CCc2cccc(S(F)(F)(F)(F)F)c2)C[C@H]1COc1ccc(S(C)(=O)=O)cc1` [Compound 163, (3S,4S)-3-[(4-methanesulfonylphenoxy)methyl]-4-methyl-1-{2-[3-(pentafluoro-λ^6-sulfanyl)phenyl]ethyl}pyrrolidine]: the AC50 on APOL1 G2 [1] worked out at 1150 nM. For the same molecule, the 50% effective concentration (EC50) on APOL1 G2 [2] was over 385 nM.
Consider `C[C@@H]1C[C@H](COc2ccc(S(=O)(=O)CCCS(C)(=O)=O)cc2)CN1CCc1cc(Cl)cc(C#N)c1` [Compound 164, 3-chloro-5-{2-[(2R,4S)-4-{[4-(3-methanesulfonylpro-panesulfonyl)phe-noxy]methyl}-2-methylpyrrolidin-1-yl]ethyl}benzonitrile], for which the AC50 on APOL1 G2 [1] was determined as 364 nM. Moreover, the EC50 on APOL1 G2 [2] is 34.1 nM.
Take `C[C@@H]1C[C@H](COc2ccc(S(=O)(=O)CCO)cc2)CN1CCc1cc(Cl)cc(C#N)c1` [Compound 165, 3-chloro-5-{2-[(2R,4S)-4-{[4-(2-hydroxyethanesul-fonyl)phenoxy]meth-yl}-2-methylpyrrolidin-1-yl]ethyl}benzonitrile]: the AC50 on APOL1 G2 [1] was found to be 409 nM. The EC50 at APOL1 G2 [2] came to 30.2 nM.
In the case of `C[C@@H]1CN(CCc2cc(Cl)cc(C#N)c2)C[C@H]1COc1ccc(S(=O)(=O)C(C)(C)CO)cc1` [Compound 166, 3-chloro-5-{2-[(3S,4S)-3-{[4-(1-hydroxy-2-methylpropane-2-sulfonyl)phenoxy]methyl}-4-methylpyrrolidin-1-yl]ethyl}benzonitrile], the AC50 at APOL1 G2 [1] was 256 nM. The EC50 on APOL1 G2 [2] was determined as 17.9 nM.

These data come from patent US20240316038A1, “APOL1 INHIBITORS AND METHODS OF USE” (Maze Therapeutics, Inc., priority 2021, published 2024).
